Among the data in US11186576B2, “Pyrazolo[1,5-A][1,3,5]triazine and pyrazolo[1,5-A]pyrimidine derivatives as CDK inhibitors” (Aurigene Discovery Technologies Limited, priority 2015, dated 2021) are inhibition, IC50 and EC50 values, retold here.

One assay deals with CDK7/CycH/MNAT1 (Homo sapiens (Human), UniProt P50613). The assay is described as follows: Biochemical assay for CDK7 (TR-FRET kinase assay). As to conditions: 60 min pre-incubation, 1 mM ATP; for inhibition at 10 µM: 10 μM compound, read-out: % inhibition @ 10 μM; for pIC50: read-out: IC50. Summed up: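 CDK7/CycH/MNAT1 (5 nM) was preincubated with compound for 60 min at room temperature, then reacted for 60 min with 100 nM ULight-MBP and 1 mM ATP in 1% DMSO. Irreversibility was probed with 20, 60 and 180 min preincubations.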
Chain of CDK7/CycH/MNAT1 (P50613 whole entry): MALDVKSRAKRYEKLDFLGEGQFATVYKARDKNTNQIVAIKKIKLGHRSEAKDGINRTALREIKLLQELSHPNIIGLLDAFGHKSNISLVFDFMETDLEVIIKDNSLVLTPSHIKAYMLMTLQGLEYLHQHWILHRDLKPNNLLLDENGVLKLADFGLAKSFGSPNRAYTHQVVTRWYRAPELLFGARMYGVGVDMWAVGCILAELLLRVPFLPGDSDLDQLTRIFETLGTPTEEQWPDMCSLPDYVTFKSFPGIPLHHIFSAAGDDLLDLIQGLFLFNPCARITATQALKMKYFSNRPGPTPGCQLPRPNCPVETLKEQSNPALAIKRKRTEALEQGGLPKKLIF
Chain of CDK7/CycH/MNAT1 (P51946 whole entry partner): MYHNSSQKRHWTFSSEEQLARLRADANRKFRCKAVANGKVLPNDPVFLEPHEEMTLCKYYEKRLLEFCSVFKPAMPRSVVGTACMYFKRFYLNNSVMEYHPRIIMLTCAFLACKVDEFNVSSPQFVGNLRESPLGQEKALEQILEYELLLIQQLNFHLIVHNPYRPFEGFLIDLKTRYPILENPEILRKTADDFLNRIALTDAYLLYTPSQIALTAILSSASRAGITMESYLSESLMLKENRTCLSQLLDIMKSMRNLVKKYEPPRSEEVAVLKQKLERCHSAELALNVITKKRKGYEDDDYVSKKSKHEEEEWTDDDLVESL
Chain of CDK7/CycH/MNAT1 (P51948 whole entry partner): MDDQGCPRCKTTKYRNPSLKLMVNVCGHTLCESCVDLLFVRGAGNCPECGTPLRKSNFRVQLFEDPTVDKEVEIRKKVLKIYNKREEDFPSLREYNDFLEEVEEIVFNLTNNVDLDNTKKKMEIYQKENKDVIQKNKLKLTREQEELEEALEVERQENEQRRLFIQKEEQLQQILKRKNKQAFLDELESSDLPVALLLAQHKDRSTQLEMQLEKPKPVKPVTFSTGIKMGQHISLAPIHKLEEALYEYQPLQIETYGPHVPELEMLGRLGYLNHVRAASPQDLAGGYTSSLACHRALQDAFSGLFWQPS
(In general: In TR-FRET formats the signal depends on donor and acceptor labels being close together.)

For assay [1], the system named is RNA polymerase II CTD phosphorylation (MDA-MB-231/NCI-H358 cells). The assay is described as follows: Inhibition of RNA polymerase II CTD phosphorylation in cell western assay. It counts as cell-based. As to conditions: 4 hours incubation, phospho RNA Pol II Ser-5 or Ser-2. The protocol:
25000 cells (MDA-MB-231/NCI-H358) were seeded in 96 well black clear bottom plate incubated for overnight before addition of selected compound. 3 fold dilutions of selected compound diluted in DMSO starting from 10 μM, added to cells and incubated for 4 hours at 37° C., 5% CO2 incubator. Cells were washed once with 100 μl of phosphate buffered saline (sigma #P3813), then fixed with 100 μl/well of 4% Para formaldehyde for 60 min at room temperature, in dark. The cells were washed 3 times with 100 μl of wash buffer (PBS with 0.1% Triton-X-100), later blocked for 2 hours at room temperature in blocking buffer (5% BSA in PBST). Cells were stained overnight at 4° C. with Phospho RNA Pol II (S5) (Millipore #04-1572, Abcam #5131) or Phospho RNA Pol II (Ser-2), antibody (Bethyl labs #A300-654-A) in blocking buffer. Post incubation cells were washed with Delifia wash buffer (Perkin Elmer #4010-0010). Cells were treated with LANCE secondary antibodies (LANCE® Eu-W1024 perkin elmer #AD-0076 for phospho Ser-5 CTD RNA pol-II and Delfia Eu-N1 anti rabbit IgG Perkin elmer #AD0106 for phospho Ser-2 CTD RNA pol-II) for 2 hours in assay buffer (Perkin Elmer #1244-111), Cells were washed 3 times with Delfia wash buffer post incubation, Enhancement solution (Perkin Elmer #1244-105) added and incubated for 20 mins. Europium readings were taken in Victor-3 instrument. Cell normalization was done using Hoechst dye (0.5 μg/ml).
Selected compounds were screened in the above mentioned assay procedure. The EC50 values are summarised in the below table; wherein group “A” refers to an EC50 value of less than or equal to 1 μM, group “B” refers to EC50 value in range of 1 to 10 μM and group “C” refers to EC50 value of greater than 10 μM.

pEC50, pIC50: −log10 of the molar value.

For the compound `C=CC(=O)N[C@H]1CC[C@@H](C(=O)Nc2cccc(CNc3nc(OC4CCOCC4)nc4c(C(C)C)cnn34)c2)CC1` [Compound 97, (1,4-cis)-4-acrylamido-N-(3-(((8-isopropyl-2-((tetrahydro-2H-pyran-4-yl)oxy)pyrazolo[1,5-a][1,3,5]triazin-4-yl)amino)methyl)phenyl)cyclohexane-1-carboxamide], at CDK7/CycH/MNAT1, the inhibition (as a rule, the relative decrease from the control value, in per cent) at 10 µM worked out at 87% and the negative logarithm of the IC50 (pIC50) (usually the IC50 on a negative log10 scale, so that one unit is a factor of ten) was 6.00 to 6.52. In addition, in assay [1], the negative logarithm of the EC50 (pEC50) (commonly the EC50 on a negative log10 scale, so that one unit is a factor of ten) was 5.00 to 6.00.

With `C=CC(=O)N[C@H]1CC[C@@H](C(=O)Nc2cccc(CNc3nc(OC4CCN(C)C4)nc4c(C(C)C)cnn34)c2)CC1` (stereo partly drawn) [Compound 101, (1,4-cis)-4-acrylamido-N-(3-(((8-isopropyl-2-((1-methylpyrrolidin-3-yl)oxy)pyrazolo[1,5-a][1,3,5]triazin-4-yl)amino)methyl)phenyl)cyclohexane-1-carboxamide], on CDK7/CycH/MNAT1, the inhibition at 10 µM stood at 96% and the negative-log IC50 (pIC50) is above 6.52. Also, in assay [1], the pEC50 was 5.00 to 6.00.

Take `C=CC(=O)N[C@H]1CC[C@@H](C(=O)Nc2cccc(CNc3nc(OC4CCN(C)CC4)nc4c(C5CC5)cnn34)c2)CC1` [Compound 105, (1,4-cis)-4-acrylamido-N-(3-(((8-cyclopropyl-2-((1-methylpiperidin-4-yl)oxy)pyrazolo[1,5-a][1,3,5]triazin-4-yl)amino)methyl)phenyl)cyclohexane-1-carboxamide]: on CDK7/CycH/MNAT1, the inhibition at 10 µM turned out to be 92% and the pIC50 is above 6.52. The same compound gave a pEC50 in assay [1] below 5.00.

As to `C=CC(=O)N1CCC(C(=O)Nc2cccc(CNc3nc(OC4CCNCC4)nc4c(C(C)C)cnn34)c2)CC1` [Compound 106, 1-acryloyl-N-(3-(((8-isopropyl-2-(piperidin-4-yloxy)pyrazolo[1,5-a][1,3,5]triazin-4-yl)amino)methyl)phenyl)piperidine-4-carboxamide], on CDK7/CycH/MNAT1, the inhibition at 10 µM amounted to 91% and the pIC50 is below 6.00. For the same compound, the pEC50 in assay [1] was 5.00 to 6.00.

As to `C=CC(=O)N1CCC(C(=O)Nc2cccc(CNc3nc(OCCCCN)nc4c(C(C)C)cnn34)c2)CC1` [Compound 107, 1-acryloyl-N-(3-(((2-(4-aminobutoxy)-8-isopropylpyrazolo[1,5-a][1,3,5]triazin-4-yl)amino)methyl)phenyl)piperidine-4-carboxamide], at CDK7/CycH/MNAT1, the inhibition at 10 µM was 95% and the negative-log IC50 (pIC50) is above 6.52. This compound also gave a negative logarithm of the EC50 (pEC50) in assay [1] of 5.00 to 6.00.

Regarding `C=CC(=O)N1CCC(C(=O)Nc2cccc(CNc3nc(OC4CCN(C)CC4)nc4c(C(C)C)cnn34)c2)C1` (centres unmarked) [Compound 108, 1-acryloyl-N-(3-(((8-isopropyl-2-((1-methylpiperidin-4-yl)oxy)pyrazolo[1,5-a][1,3,5]triazin-4-yl)amino)methyl)phenyl)pyrrolidine-3-carboxamide], on CDK7/CycH/MNAT1, the inhibition at 10 µM was determined as 99% and the negative logarithm of the IC50 (pIC50) is above 6.52. This compound gave a pEC50 in assay [1] of 5.00 to 6.00.

Take `C=CC(=O)N1CCC(C(=O)Nc2cccc(CNc3nc(OC4CCN(C)CC4)nc4c(C(C)C)cnn34)c2)CC1` [Compound 111, 1-acryloyl-N-(3-(((8-isopropyl-2-((1-methylpiperidin-4-yl)oxy)pyrazolo[1,5-a][1,3,5]triazin-4-yl)amino)methyl)phenyl)piperidine-4-carboxamide]: at CDK7/CycH/MNAT1, the inhibition at 10 µM was found to be 95% and the pIC50 was above 6.52. This compound also showed a negative-log EC50 (pEC50) in assay [1] of 5.00 to 6.00.

With `C=CC(=O)NC1CCCC(C(=O)Nc2cccc(CNc3nc(OC4CCN(C)CC4)nc4c(C(C)C)cnn34)c2)C1` (centres unmarked) [Compound 114, 3-acrylamido-N-(3-(((8-isopropyl-2-((1-methylpiperidin-4-yl)oxy)pyrazolo[1,5-a][1,3,5]triazin-4-yl)amino)methyl)phenyl)cyclohexane-1-carboxamide], on CDK7/CycH/MNAT1, the inhibition at 10 µM came out at 97% and the negative logarithm of the IC50 (pIC50) was above 6.52. Further, the negative logarithm of the EC50 (pEC50) in assay [1] was 5.00 to 6.00.

Take `C=CC(=O)N[C@H]1CC[C@@H](C(=O)Nc2cccc(CNc3nc(OC4CCN(C)CC4)nc4c(C(C)C)cnn34)c2)CC1` [Compound 115, (1,4-cis)-4-acrylamido-N-(3-(((8-isopropyl-2-((1-methylpiperidin-4-yl)oxy)pyrazolo[1,5-a][1,3,5]triazin-4-yl)amino)methyl)phenyl)cyclohexane-1-carboxamide]: on CDK7/CycH/MNAT1, the inhibition at 10 µM stood at 94% and the pIC50 was above 6.52. The compound also gave a negative-log EC50 (pEC50) in assay [1] of at least 6.00.

Regarding `C=CC(=O)N1CCCC(C(=O)Nc2cccc(CNc3nc(OC4CCN(C)CC4)nc4c(C(C)C)cnn34)c2)C1` (centres unmarked) [Compound 116, 1-acryloyl-N-(3-(((8-isopropyl-2-((1-methylpiperidin-4-yl)oxy)pyrazolo[1,5-a][1,3,5]triazin-4-yl)amino)methyl)phenyl)piperidine-3-carboxamide], on CDK7/CycH/MNAT1, the inhibition at 10 µM is 92% and the pIC50 was above 6.52. In assay [1], this compound had a pEC50 of 5.00 to 6.00.

As for `C=CC(=O)N1CCCC(C(=O)Nc2cc(CNc3nc(OC4CCN(C)CC4)nc4c(C(C)C)cnn34)ccc2F)C1` (centres unmarked) [Compound 117, 1-acryloyl-N-(2-fluoro-5-(((8-isopropyl-2-((1-methylpiperidin-4-yl)oxy)pyrazolo[1,5-a][1,3,5]triazin-4-yl)amino)methyl)phenyl)piperidine-3-carboxamide], at CDK7/CycH/MNAT1, the inhibition at 10 µM came to 95% and the negative-log IC50 (pIC50) is above 6.52. Also, the negative logarithm of the EC50 (pEC50) in assay [1] is 5.00 to 6.00.

As for `C=CC(=O)N1CCCC(C(=O)Nc2cccc(C(C)Nc3nc(OC4CCN(C)CC4)nc4c(C(C)C)cnn34)c2)C1` (centres unmarked) [Compound 119, 1-acryloyl-N-(3-(1-((8-isopropyl-2-((1-methylpiperidin-4-yl)oxy)pyrazolo[1,5-a][1,3,5]triazin-4-yl)amino)ethyl)phenyl)piperidine-3-carboxamide], at CDK7/CycH/MNAT1, the inhibition at 10 µM worked out at 99% and the negative-log IC50 (pIC50) is above 6.52. Further, the negative logarithm of the EC50 (pEC50) in assay [1] is below 5.00.

Consider `CC(C)c1cnn2c(NCc3cccc(NC(=O)C4CCCN(C(=O)/C=C/CN(C)C)C4)c3)nc(OC3CCN(C)CC3)nc12` (centres unmarked) [Compound 122, (E)-1-(4-(dimethylamino)but-2-enoyl)-N-(3-(((8-isopropyl-2-((1-methyl-piperidin-4-yl)oxy)pyrazolo[1,5-a][1,3,5]triazin-4-yl)amino)methyl)phenyl)-piperidine-3-carboxamide], for which the pIC50 on CDK7/CycH/MNAT1 was above 6.52. For the same compound, in assay [1], the negative logarithm of the EC50 (pEC50) was below 5.00.

For `CC(C)c1cnn2c(NCc3ccc(F)c(NC(=O)[C@H]4CC[C@@H](NC(=O)/C=C/CN(C)C)CC4)c3)nc(OC3CCN(C)CC3)nc12` [Compound 124, (1,4-cis)-4-((E)-4-(dimethylamino)but-2-enamido)-N-(2-fluoro-5-(((8-isopropyl-2-((1-methylpiperidin-4-yl)oxy)pyrazolo[1,5-a][1,3,5]triazin-4-yl)amino)methyl)phenyl)cyclohexane-1-carboxamide], on CDK7/CycH/MNAT1, the inhibition at 10 µM is 94% and the pIC50 is above 6.52. The compound further gave a pEC50 in assay [1] below 5.00.

Turning to `C=CC(=O)Nc1ccc(C(=O)Nc2cccc(Nc3nc(OC4CCN(C)CC4)nc4c(C(C)C)cnn34)c2)cc1` [Compound 125, 4-acrylamido-N-(3-((8-isopropyl-2-((1-methylpiperidin-4-yl)oxy)pyrazolo[1,5-a][1,3,5]triazin-4-yl)amino)phenyl)benzamide], on CDK7/CycH/MNAT1, the inhibition at 10 µM is 86% and the negative-log IC50 (pIC50) is above 6.52. The same compound showed a pEC50 in assay [1] of at least 6.00.
